Results: publication PMC10548421, “Anticancer Potential of Diruthenium Complexes with Bridging Hydrocarbyl Ligands from Bioactive Alkynols” (Inorganic Chemistry, 2023)
Read-outs that look alike come from different tables or passages of the source.

Tests used:
[1] = system: A2780 human ovarian carcinoma cell line; assay: MTT in vitro cytotoxicity, A2780; type: cell-based
Procedure: The cytotoxicity assessment was conducted on various human cancer cell lines, including A2780 ovarian carcinoma, A2780R cisplatin-resistant ovarian carcinoma, MCF-7 breast, HOS osteosarcoma, A549 epithelial lung, PANC-1 pancreatic, Caco-2 colorectal, PC-3 prostate adenocarcinoma, and HeLa cervical cell lines. Additionally, the assessment extended to a normal human fetal fibroblast cell line (MRC-5). Cells were obtained from ATCC collection and cultivated according to the producer’s instructions. Stock solutions of the compounds were prepared in DMF immediately before application, and diluted with H2O to achieve the final concentration of 0.1% v/v DMF.[99] The culture media were enriched with 10% fetal calf serum. Subsequently, the cells were exposed to the tested compounds, vehicle (0.1% v/v DMF) and Triton X-100 (1% v/v), during incubation. The conventional MTT assay was carried out following different incubation periods (Tables 5-6). The absorbance was measured at 570 nm by using a spectrophotometer (Infinite M200, Schoeller Instruments, Prague, Czech Republic). The obtained data are presented as the percentage of cell viability with 100% representing negative control treatment (0.1% v/v DMF) and 0% representing the positive control (Triton X-100). The half-maximal inhibitory concentrations (IC50) were determined from dose–response curves using GraphPad Prism 6 software (GraphPad Software, San Diego, USA).

[2] = Cyclic voltammetry in CH2Cl2/[N^nBu4]PF6; type: physicochemical; details: CH2Cl2/[N^nBu4]PF6 0.2 M
Procedure: Cyclic voltammetry measurements were conducted by using a PalmSens4 instrument connected to a computer operating with the PSTrace5 electrochemical software. Prior to use, anhydrous CH2Cl2 (Merck) was stored under argon over 3 Å molecular sieves. Both [N^nBu4]PF6 (electrochemical grade) and FeCp2, obtained from Fluka, were utilized without requiring additional purification. Cyclic voltammetries were carried out under argon by utilizing a 0.2 M solution of [N^nBu4]PF6 in CH2Cl2 as the supporting electrolyte. The working electrode and the counter electrode were comprised of a platinum disk and a platinum gauze, respectively, both enclosed within a glass tube. A leakage-free miniature electrode of Ag/AgCl/KCl (from eDAQ) was employed as a reference. The three-electrode designed cell was subjected to predrying via vacuum heating and then filled with argon gas. The Schlenk-type design of the cell was effective in upholding both anhydrous and anaerobic conditions. Subsequently, a solution of supporting electrolyte, prepared under argon, was introduced into the cell, and the CV of the solvent was acquired. Afterward, the analyte was introduced, and voltammograms were recorded. Under the selected experimental conditions, the one-electron oxidation of ferrocene occurred at a standard potential of E° = +0.45 V relative to Ag/AgCl/KCl.

[3] = MTT, incubation 24 h, mean ± SD (Table 5), read-out: IC50 A2780
[4] = time-course experiment (Table 6), 24 h, mean ± SD, read-out: IC50 A2780, incubation time 24 h
[5] = time-course experiment (Table 6), 48 h, mean ± SD, read-out: IC50 A2780, incubation time 48 h
[6] = time-course experiment (Table 6), 72 h, mean ± SD, read-out: IC50 A2780, incubation time 72 h
[7] = vs Ag/AgCl/KCl, peak potential of irreversible process

## CC12CCC3c4ccc(O)cc4CCC3C1CCC2=C=[CH][Ru]1(=[C]=O)([CH]2C=CC=C2)[C](=O)[Ru+]1(=[C]=O)[CH]1C=CC=C1.F[B-](F)(F)F (mixture of isomers) [3b, [Ru2Cp2(CO)3{μ–η^1:η^2-CH=C=(estradiolylidene)}]BF4]
[1]; [3]
  IC50: 3.4 ± 0.6 µM
[1]; [4]
  IC50: 4 ± 0.7 µM
[1]; [5]
  IC50: 3 ± 0.3 µM
[1]; [6]
  IC50: 2.8 ± 0.2 µM

## F[B-](F)(F)F.O=[C]=[Ru+]1([CH]2C=CC=C2)[C](=O)[Ru]1(=[C]=O)([CH]=C=C1CCCC1)[CH]1C=CC=C1 (stereo not drawn) [3a, [Ru2Cp2(CO)3{μ–η^1:η^2-CH=C=(cyclopentylidene)}]BF4]
[1]; [3]
  IC50: 4.2 ± 0.9 µM
[1]; [4]
  IC50: 3.8 ± 0.7 µM
[1]; [5]
  IC50: 3.2 ± 0.2 µM
[1]; [6]
  IC50: 3.1 ± 0.2 µM
[2]; [7]
  Formal electrode potential, oxidation: +1.61 V
  Formal electrode potential, reduction: –1.00 V
[2]; vs FeCp2 (in parentheses)
  Formal electrode potential, oxidation: +1.15 V
  Formal electrode potential, reduction: −1.46 V
